One assay concerns the target T1, human CYP11B2 (Homo sapiens, UniProt P19099).
T1 construct: expressed in transfected cells
T1 sequence (P19099 25-503): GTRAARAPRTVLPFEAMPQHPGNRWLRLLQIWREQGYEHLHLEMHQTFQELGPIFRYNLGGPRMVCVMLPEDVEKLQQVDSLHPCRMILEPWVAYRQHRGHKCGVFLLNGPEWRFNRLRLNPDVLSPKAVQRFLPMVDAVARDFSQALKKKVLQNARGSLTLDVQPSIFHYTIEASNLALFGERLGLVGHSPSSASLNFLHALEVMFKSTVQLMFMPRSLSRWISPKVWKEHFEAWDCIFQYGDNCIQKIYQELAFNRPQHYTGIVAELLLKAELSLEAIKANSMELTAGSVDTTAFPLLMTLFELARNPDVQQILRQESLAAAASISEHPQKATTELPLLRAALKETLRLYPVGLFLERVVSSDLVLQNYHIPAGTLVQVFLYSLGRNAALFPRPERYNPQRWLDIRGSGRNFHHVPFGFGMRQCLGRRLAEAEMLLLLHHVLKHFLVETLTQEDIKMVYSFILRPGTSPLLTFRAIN
Briefly: G-402 cellular enzyme assay, human CYP11B2 (aldosterone release, HTRF). The class given is cell-based. The note with it: G-402 cells, 1 μM Deoxycorticosterone. In a few lines:
(§1)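 Stable G-402 transfectants; 16 h incubation with inhibitor plus substrate — CYP11B2: 1 μM deoxycorticosterone, aldosterone read; CYP11B1: 1 μM deoxycortisol, cortisol read. HTRF on supernatant. Medium DMEM/F12, 2.5% charcoal FCS. EC50 via MMF sigmoidal fit.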

For another assay, the target named is T2, human CYP11B1 (Homo sapiens, UniProt P15538).
T2 construct: expressed in transfected cells
T2 sequence (P15538 25-503): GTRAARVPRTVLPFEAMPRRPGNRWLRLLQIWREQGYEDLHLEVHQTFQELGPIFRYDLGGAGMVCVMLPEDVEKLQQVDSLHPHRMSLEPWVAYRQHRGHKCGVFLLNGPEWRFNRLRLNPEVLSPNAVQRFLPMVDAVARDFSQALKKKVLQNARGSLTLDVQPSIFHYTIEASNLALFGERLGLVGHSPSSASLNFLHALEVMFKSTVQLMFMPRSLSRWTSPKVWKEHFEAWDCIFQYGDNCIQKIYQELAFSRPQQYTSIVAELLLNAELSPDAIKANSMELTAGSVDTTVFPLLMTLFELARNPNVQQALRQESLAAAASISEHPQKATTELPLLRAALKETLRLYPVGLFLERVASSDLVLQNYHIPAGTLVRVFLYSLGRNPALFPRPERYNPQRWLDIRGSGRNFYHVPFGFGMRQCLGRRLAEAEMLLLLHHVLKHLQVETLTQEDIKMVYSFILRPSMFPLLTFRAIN
The experiment in a line: G-402 cellular enzyme assay, human CYP11B1 (cortisol release, HTRF). The class given is cell-based. As to conditions: G-402 cells, 1 μM Deoxycortisol. A digest of the protocol: as §1

pEC50: −log10 of the molar value.

Regarding `CC1Cc2cc(Cl)ccc2C(=O)N1c1cncc(F)c1` (stereo not drawn) [Example 89, 6-Chloro-2-(5-fluoro-pyridin-3-yl)-3-methyl-3,4-dihydro-2H-isoquinolin-1-one], the pEC50 was 6.57 at human CYP11B2 and 4.77 at human CYP11B1.

Consider `O=C1c2ccc(Cl)cc2CCN1c1cncc(NCc2ccc(F)cc2)c1` [Example 222, 6-Chloro-2-[5-(4-fluoro-benzylamino)-pyridin-3-yl]-3,4-dihydro-2H-isoquinolin-1-one], for which the pEC50 at human CYP11B2 was 7.10; on human CYP11B1, 6.47.

As to `Cc1cncc(N2CCc3cc(Cl)ccc3C2=O)c1` [Example 8, 6-Chloro-2-(5-methyl-pyridin-3-yl)-3,4-dihydro-2H-isoquinolin-1-one], the pEC50 on human CYP11B2 was 7.35; at human CYP11B1, 6.09.

As to `CCC(=O)N[C@H]1CCCc2c1cncc2N1C(=O)c2ccc(Cl)cc2[C@H]1CC` (single isomer, unassigned) [Example 352, N-[(S or R)-4-((R or S)-5-Chloro-3-ethyl-1-oxo-1,3-dihydro-isoindol-2-yl)-5,6,7,8-tetrahydro-isoquinolin-8-yl]-propionamide], the figures for the pEC50 on human CYP11B2 and at human CYP11B1 were 7.02 and 4.40, respectively.

Take `Cn1cncc1C(=O)NCc1cncc(N2C(=O)c3ccc(Cl)cc3C2(C)C)c1` [Example 435, 3-Methyl-3H-imidazole-4-carboxylic acid [5-(6-chloro-1,1-dimethyl-3-oxo-1,3-dihydro-isoindol-2-yl)-pyridin-3-ylmethyl]-amide]: the results for the pEC50 at human CYP11B2 and at human CYP11B1 were 8.06 and 6.59, respectively.

With `CC(O)c1cncc(N2C(=O)c3ccc(Cl)cc3C2C)c1` (stereo not drawn) [Example 122, 5-Chloro-2-[5-(1-hydroxy-ethyl)-pyridin-3-yl]-3-methyl-2,3-dihydro-isoindol-1-one], the results for the pEC50 at human CYP11B2 and at human CYP11B1 were 7.37 and 6.74, respectively.

As to `CCC1c2cc(Cl)ccc2C(=O)N1c1cnccc1Cl` (stereo not drawn) [Example 284, 5-Chloro-2-(4-chloro-pyridin-3-yl)-3-ethyl-2,3-dihydro-isoindol-1-one], the pEC50 at human CYP11B2 was 7.69; on human CYP11B1, 6.60.

As for `O=C1c2ccc(Cl)cc2CCN1c1cncc(Cn2ccnc2C2CC2)c1` [Example 188, 6-Chloro-2-[5-(2-cyclopropyl-imidazol-1-ylmethyl)-pyridin-3-yl]-3,4-dihydro-2H-isoquinolin-1-one], the pEC50 at human CYP11B2 is 6.64; at human CYP11B1, 5.38.

For `CCS(=O)(=O)N(C)Cc1cncc(N2C(=O)c3ccc(Cl)cc3C2(C)C)c1` [Example 395, Ethanesulfonic acid [5-(6-chloro-1,1-dimethyl-3-oxo-1,3-dihydro-isoindol-2-yl)-pyridin-3-ylmethyl]-methyl-amide], the pEC50 at human CYP11B2 was 8.10; on human CYP11B1 it was 6.17.

In the case of `CC1(C)c2cc(Cl)ccc2C(=O)N1c1cncc(CN2CCOC2=O)c1` [Example 412, 5-Chloro-3,3-dimethyl-2-[5-(2-oxo-oxazolidin-3-ylmethyl)-pyridin-3-yl]-2,3-dihydro-isoindol-1-one], the pEC50 was 7.33 at human CYP11B2 and 5.78 on human CYP11B1.

`CCC1c2ccc(Cl)cc2C(=O)N1c1cncc(F)c1` (single isomer, unassigned) [Example 307, (S or R)-6-Chloro-3-ethyl-2-(5-fluoro-pyridin-3-yl)-2,3-dihydro-isoindol-1-one]: the figures for the pEC50 at human CYP11B2 and at human CYP11B1 were 6.41 and 4.81, respectively.

Regarding `O=C1c2ccc(Cl)cc2CCN1c1cncc(CN2CCCCS2(=O)=O)c1` [Example 81, 6-Chloro-2-[5-(1,1-dioxo-1λ^6-[1,2]thiazinan-2-ylmethyl)-pyridin-3-yl]-3,4-dihydro-2H-isoquinolin-1-one], the pEC50 is 6.75 on human CYP11B2 and 5.63 on human CYP11B1.

For `O=C1c2ccc(Cl)cc2CCN1c1cncc(-c2cccc(OC(F)(F)F)c2)c1` [Example 237, 6-Chloro-2-[5-(3-trifluoromethoxy-phenyl)-pyridin-3-yl]-3,4-dihydro-2H-isoquinolin-1-one], the figures for the negative logarithm of the EC50 (pEC50) on human CYP11B2 and at human CYP11B1 were 6.69 and 5.44, respectively.

Turning to `O=C1c2ccc(Cl)cc2CCN1c1cncc(Cn2nccn2)c1` [Example 174, 6-Chloro-2-(5-[1,2,3]triazol-2-ylmethyl-pyridin-3-yl)-3,4-dihydro-2H-isoquinolin-1-one], the pEC50 was 7.59 on human CYP11B2 and 6.68 at human CYP11B1.

As to `C[C@H](O)c1cncc(N2CCc3cc(Cl)ccc3C2=O)c1` [Example 15, 6-Chloro-2-[5-((S)-1-hydroxy-ethyl)-pyridin-3-yl]-3,4-dihydro-2H-isoquinolin-1-one], the pEC50 at human CYP11B2 was 7.17; at human CYP11B1, 6.04.

Turning to `CCOC(=O)c1nccn1Cc1cncc(N2CCc3cc(Cl)ccc3C2=O)c1` [Example 162, 1-[5-(6-Chloro-1-oxo-3,4-dihydro-1H-isoquinolin-2-yl)-pyridin-3-ylmethyl]-1H-imidazole-2-carboxylic acid ethyl ester], the pEC50 at human CYP11B2 was 6.73; on human CYP11B1, 5.70.

With `Cn1ccc2cncc(N3CCc4cc(Cl)ccc4C3=O)c21` [Example 65, 6-Chloro-2-(1-methyl-1H-pyrrolo[3,2-c]pyridin-7-yl)-3,4-dihydro-2H-isoquinolin-1-one], the pEC50 on human CYP11B2 was 7.01; on human CYP11B1, 5.63.

As for `Nc1ccn(Cc2cncc(N3CCc4cc(Cl)ccc4C3=O)c2)n1` [Example 382, 2-[5-(3-Amino-pyrazol-1-ylmethyl)-pyridin-3-yl]-6-chloro-3,4-dihydro-2H-isoquinolin-1-one], the pEC50 was 7.47 at human CYP11B2 and 5.82 on human CYP11B1.

As to `C[S+]([O-])c1cncc(N2CCc3cc(Cl)ccc3C2=O)c1` (stereo not drawn) [Example 279, 6-Chloro-2-(5-methanesulfinyl-pyridin-3-yl)-3,4-dihydro-2H-isoquinolin-1-one], the pEC50 on human CYP11B2 is 6.22; at human CYP11B1 it was 4.95.

As for `O=C1c2ccc(Cl)cc2CCN1c1cncc(CN2CCC(F)(F)CC2)c1` [Example 168, 6-Chloro-2-[5-(4,4-difluoro-piperidin-1-ylmethyl)-pyridin-3-yl]-3,4-dihydro-2H-isoquinolin-1-one], the pEC50 at human CYP11B2 was 8.47; at human CYP11B1, 7.32.

As to `Cn1nccc1-c1cncc(N2C(=O)c3ccc(Cl)cc3C2(C)C)c1` [Example 418, 5-Chloro-3,3-dimethyl-2-[5-(2-methyl-2H-pyrazol-3-yl)-pyridin-3-yl]-2,3-dihydro-isoindol-1-one], the pEC50 at human CYP11B2 is 8.40; at human CYP11B1, 7.21.

On to `O=C(Nc1cncc(N2CCc3cc(Cl)ccc3C2=O)c1)c1ccc(F)cc1` [Example 249, N-[5-(6-Chloro-1-oxo-3,4-dihydro-1H-isoquinolin-2-yl)-pyridin-3-yl]-4-fluoro-benzamide], for which the values for the pEC50 on human CYP11B2 and at human CYP11B1 were 5.49 and 5.12, respectively.

Regarding `CC(=O)N1CCC(Oc2cncc(N3C(=O)c4ccc(Cl)cc4C3(C)C)c2)C1` (stereo not drawn) [Example 441, 2-[5-(1-Acetyl-pyrrolidin-3-yloxy)-pyridin-3-yl]-5-chloro-3,3-dimethyl-2,3-dihydro-isoindol-1-one], the results for the pEC50 at human CYP11B2 and on human CYP11B1 were 7.78 and 6.01, respectively.

Consider `O=C1c2ccc(Cl)cc2CCN1c1cncc(CN2C(=O)CC[C@H]2CO)c1` [Example 83, 6-Chloro-2-[5-((S)-2-hydroxymethyl-5-oxo-pyrrolidin-1-ylmethyl)-pyridin-3-yl]-3,4-dihydro-2H-isoquinolin-1-one], for which the values for the pEC50 at human CYP11B2 and on human CYP11B1 were 6.23 and 4.80, respectively.

With `O=C1c2ccc(Cl)cc2CCN1c1cncc(-c2cccc(F)c2)c1` [Example 231, 6-Chloro-2-[5-(3-fluoro-phenyl)-pyridin-3-yl]-3,4-dihydro-2H-isoquinolin-1-one], the figures for the pEC50 at human CYP11B2 and on human CYP11B1 were 7.63 and 6.33, respectively.

In the case of `O=C1c2ccc(Cl)cc2CCN1c1cncc(CNc2cccc(F)c2)c1` [Example 259, 6-Chloro-2-{5-[(3-fluoro-phenylamino)-methyl]-pyridin-3-yl}-3,4-dihydro-2H-isoquinolin-1-one], the pEC50 on human CYP11B2 was 7.91; on human CYP11B1, 7.13.

`CC(c1cncc(N2CCc3cc(Cl)ccc3C2=O)c1)n1ccnc1` (stereo not drawn) [Example 270, 6-Chloro-2-[5-(1-imidazol-1-yl-ethyl)-pyridin-3-yl]-3,4-dihydro-2H-isoquinolin-1-one]: the pEC50 on human CYP11B2 is 8.20; on human CYP11B1 it was 7.55.

(Values after patent publication US9133158B2, “Bicyclic dihydroisoquinoline-1-one derivatives” (Hoffmann-La Roche Inc., priority 2011, dated 2015).)
